pIC50: −log10 of the molar value.

These results are taken from US20220168268A1, “SMALL-MOLECULE INHIBITOR OF PD-1/PD-L1, PHARMACEUTICAL COMPOSITION THEREOF WITH PD-L1 ANTIBODY, AND APPLICATION OF SAME” (Guangzhou Maxinovel Pharmaceuticals Co., Ltd., priority 2019, published 2022).

T1 sequence (Q9NZQ7 19-238 limits assumed): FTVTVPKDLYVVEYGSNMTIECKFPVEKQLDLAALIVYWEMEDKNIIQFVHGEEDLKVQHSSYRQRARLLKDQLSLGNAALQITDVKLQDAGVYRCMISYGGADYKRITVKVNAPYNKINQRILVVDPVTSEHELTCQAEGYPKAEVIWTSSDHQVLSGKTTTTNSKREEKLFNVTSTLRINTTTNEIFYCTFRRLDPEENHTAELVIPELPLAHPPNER

This experiment addresses T1, PD-1/PD-L1 (Homo sapiens, UniProt Q9NZQ7).
T1 construct: unspecified kit tag (tag1 or tag2, recognised by the detection antibodies); purchased CisBio 64CUS000C-1
Briefly: Homogeneous Time-Resolved Fluorescence (HTRF) PD-1/PD-L1 binding assay. As to conditions: CisBio kit. On the procedure:
Homogenouse Time-Resolved Fluorescence (HTRF) binding assay was used to determine the binding activity of the compound of the present disclosure to PD-1/PD-L1.
The purchased kit (CisBio, #64CUS000C-1) contained the reagents required for experiments such as PD-1, PD-L1, anti-tagl-Eu, Anti-tag2-XL665, Dilute Buffer and Detection Buffer.
1. The compound was formulated to 10 concentrations with a three-fold concentration gradient with 100% DMSO.
2. The solution of the compound in DMSO was added to Dilute Buffer, and mixed evenly and then transferred to a 96-well plate.
3. PD-L1 was diluted with Dilute Buffer and added to the 96-well plate above.
4. PD-1 was diluted with Dilute Buffer, then added to the 96-well plate above and incubated at room temperature for 30 minutes.
5. One portion of anti-tag1-Eu and one portion of anti-tag2-XL665 were added to Detection Buffer, mixed evenly and transferred to the 96-well plate above.
6. The mixed solution in the 96-well plate were incubated at room temperature for 1 to 24 hours.
7. HTRF values were read by Envision.
(In general: In TR-FRET formats the signal depends on donor and acceptor labels being close together.)
Compound `Cc1ccc(CN[C@@H](CO)C(=O)O)cc1/C=C/c1cccc(-c2ccc3c(c2F)OCCO3)c1C` [Compound 14, (S,E)-2-(3-(3-(5-fluoro-2,3-dihydrobenzo[b][1,4]dioxin-6-yl)-2-methylstyryl)-4-methylbenzylamino)-3-hydroxypropanoic Acid] had a negative logarithm of the IC50 (pIC50) of 7.72.

Regarding `Cc1c(/C=C/c2cc(CNC(C)(CO)C(=O)O)ccc2C(F)(F)F)cccc1-c1ccccc1` (stereo not drawn) [Compound 5, (E)-2-(3-(2-(2-methylbiphenyl-3-yl)vinyl)-4-(trifluoromethyl)benzylamino)-3-hydroxy-2-methylpropanoic Acid], the pIC50 was 7.64. This pIC50 and that of the compound before are within 0.2 log units of each other.

Turning to `Cc1c(/C=C/c2cc(C(C)NCC(=O)O)ccc2C(F)(F)F)cccc1-c1ccccc1` (stereo not drawn) [Compound 32, (E)-2-(1-(3-(2-(2-methylbiphenyl-3-yl)vinyl)-4-(trifluoromethyl)phenyl)ethylamino)acetic Acid], the negative-log IC50 (pIC50) is 7.62.

The compound `Cc1c(/C=C/c2cc(CNC(CO)C(=O)O)ccc2C(F)(F)F)cccc1-c1cccc(F)c1F` (stereo not drawn) [Compound 15, (E)-2-(3-(2-(2′,3′-difluoro-2-methylbiphenyl-3-yl)vinyl)-4-(trifluoromethyl)benzylamino)-3-hydroxypropanoic Acid] showed a pIC50 of 7.85.

`Cc1c(/C=C/c2cc(CNC(C)(CO)C(=O)O)ccc2C(F)(F)F)cccc1-c1cccc(F)c1` (stereo not drawn) [Compound 3, (E)-2-(3-(2-(3′-fluoro-2-methylbiphenyl-3-yl)vinyl)-4-(trifluoromethyl)benzylamino)-3-hydroxy-2-methylpropanoic Acid] had a negative logarithm of the IC50 (pIC50) of 7.34.

For the compound `Cc1c(/C=C/c2cc(CNC(C)(CO)C(=O)O)ccc2C(F)(F)F)cccc1-c1cccc(F)c1F` (stereo not drawn) [Compound 23, (E)-2-(3-(2-(2′,3′-difluoro-2-methylbiphenyl-3-yl)vinyl)-4-(trifluoromethyl)benzylamino)-3-hydroxy-2-methylpropanoic Acid], the pIC50 was 7.59.

Compound `COc1ccc(-c2cccc(/C=C/c3cc(CNC(C)(CO)C(=O)O)ccc3C)c2C)cc1` (stereo not drawn) [Compound 2, (E)-2-((3-(2-(4′-methoxy-2-methylbiphenyl-3-yl)vinyl)-4-methylbenzyl)amino)-3-hydroxy-2-methylpropanoic Acid] had a negative logarithm of the IC50 (pIC50) of 5.51.

The compound `Cc1c(/C=C/c2cc(CNC(C)(CO)C(=O)O)ccc2F)cccc1-c1ccc2c(c1)OCCO2` (stereo not drawn) [Compound 25, (E)-2-(3-(3-(2,3-dihydrobenzo[b][1,4]dioxin-6-yl)-2-methylstyryl)-4-fluorobenzylamino)-3-hydroxy-2-methylpropanoic Acid] gave a pIC50 of 7.18. This pIC50 lies 1.67 log units higher than the previous one.

Compound `Cc1c(/C=C/c2cc(CN[C@@](C)(CO)C(=O)O)ccc2C(F)(F)F)cccc1-c1cccnc1` [Compound 40, (S,E)-3-hydroxy-2-methyl-2-(3-(2-methyl-3-(pyridin-3-yl)styryl)-4-(trifluoromethyl)benzylamino)propanoic Acid] showed a pIC50 of 6.24.

Turning to `Cc1ccc(CN[C@@](C)(CO)C(=O)O)cc1/C=C/c1cccc(-c2ccccc2)c1C` [Compound 31, (S,E)-2-(3-(2-(2-methylbiphenyl-3-yl)vinyl)-4-methylbenzylamino)-3-hydroxy-2-methylpropanoic Acid], the negative-log IC50 (pIC50) was 7.39.

`Cc1c(/C=C/c2cc(CN[C@@H](CO)C(=O)O)ccc2C(F)(F)F)cccc1-c1ccc2c(c1F)OCCO2` [Compound 16] showed a pIC50 of 7.89.

Consider `Cc1c(CCc2cc(CNC(C)(CO)C(=O)O)ccc2C(F)(F)F)cccc1-c1ccccc1` (stereo not drawn) [Compound 21, 2-(3-(2-(2-Methylbiphenyl-3-yl)ethyl)-4-(trifluoromethyl)benzylamino)-3-hydroxy-2-methylpropanoic Acid], for which the pIC50 is 7.07.

For `Cc1c(/C=C/c2cc(CN[C@@](C)(CO)C(=O)O)ccc2C(F)(F)F)cccc1-c1ccc2ncoc2c1` [Compound 35, (S,E)-2-(3-(3-(benzo[d]oxazol-6-yl)-2-methylstyryl)-4-(trifluoromethyl)benzylamino)-3-hydroxy-2-methylpropanoic Acid], the pIC50 was 5.96.

`Cc1ccc(CNC(C)(CO)C(=O)O)cc1/C=C/c1cccc(-c2ccc(F)cc2)c1C` (stereo not drawn) [Compound 7, (E)-2-(3-(2-(4′-fluoro-2-methylbiphenyl-3-yl)vinyl)-4-methylbenzylamino)-3-hydroxy-2-methylpropanoic Acid]: the pIC50 is 5.85.

`Cc1ccc(CN[C@@](C)(CO)C(=O)O)cc1/C=C/c1cccc(-c2ccc3c(c2F)OCCO3)c1C` [Compound 30, (S,E)-2-(3-(3-(5-fluoro-2,3-dihydrobenzo[b][1,4]dioxin-6-yl)-2-methylstyryl)-4-methylbenzylamino)-3-hydroxy-2-methylpropanoic Acid] gave a pIC50 of 7.57.

Turning to `Cc1c(/C=C/c2cc(CN[C@@](C)(CO)C(=O)O)ccc2C(F)(F)F)cccc1-c1ccc2cnoc2c1` [Compound 38, (S,E)-2-(3-(3-(benzo[d]isoxazol-6-yl)-2-methylstyryl)-4-(trifluoromethyl)benzylamino)-3-hydroxy-2-methylpropanoic Acid], the pIC50 is less than 5.00.

In turn, `Cc1c(CCc2cc(CNC(C)C(=O)O)ccc2C(F)(F)F)cccc1-c1ccccc1` (stereo not drawn) [Compound 22, 2-(3-(2-(2-Methylbiphenyl-3-yl)ethyl)-4-(trifluoromethyl)benzylamino) propanoic Acid] gave a negative-log IC50 (pIC50) of 7.36.

In the case of `Cc1ccc(CN[C@@](C)(CO)C(=O)O)cc1/C=C/c1cccc(-c2ccc3c(c2F)OCCO3)c1C` [Compound 26, (S,E)-2-(3-(3-(5-fluoro-2,3-dihydrobenzo[b][1,4]dioxin-6-yl)-2-methylstyryl)-4-methylbenzylamino)-3-hydroxy-2-methylpropanoic Acid], the pIC50 was 7.70. Against the preceding compound, the pIC50 is 0.34 log units higher.

In turn, `Cc1c(/C=C/c2cc(CN[C@@](C)(CO)C(=O)O)ccc2C(F)(F)F)cccc1-c1ccc2nccn2c1` [Compound 36] gave a negative logarithm of the IC50 (pIC50) of less than 5.00.

In turn, `Cc1nc2ccc(-c3cccc(/C=C/c4cc(CN[C@@](C)(CO)C(=O)O)ccc4C(F)(F)F)c3C)cc2o1` [Compound 43, (S,E)-3-hydroxy-2-methyl-2-(3-(2-methyl-3-(2-methylbenzo[d]oxazol-6-yl)-styryl)-4-(trifluoromethyl)benzylamino)-3-hydroxy-2-methylpropanoic Acid] had a negative logarithm of the IC50 (pIC50) of 6.27.

With `Cc1c(/C=C/c2cc(CNC(C)(CO)C(=O)O)ccc2C(F)(F)F)cccc1-c1ccc2c(c1F)OCCO2` (stereo not drawn) [Compound 20, (E)-2-(3-(3-(5-fluoro-2,3-dihydrobenzo[b][1,4]dioxin-6-yl)-2-methylstyryl)-4-(trifluoromethyl)benzylamino)-3-hydroxy-2-methylpropanoic Acid], the pIC50 was 7.74.

Compound `Cc1c(/C=C/c2cc(CN[C@@](C)(CO)C(=O)O)ccc2C(F)(F)F)cccc1-c1ccccn1` [Compound 39, (S,E)-3-hydroxy-2-methyl-2-(3-(2-methyl-3-(pyridin-2-yl)styryl)-4-(trifluoromethyl)benzylamino)propanoic Acid] had a pIC50 of 5.66.

In turn, `Cc1c(/C=C/c2cc(CNC(CO)C(=O)O)ccc2C(F)(F)F)cccc1-c1ccc2c(c1)OCCO2` (stereo not drawn) [Compound 1, (E)-2-(3-(3-(2,3-dihydrobenzo[b][1,4]dioxin-6-yl)-2-methylstyryl)-4-(trifluoromethyl)benzylamino)-3-hydroxypropanoic Acid] had a negative logarithm of the IC50 (pIC50) of 7.85.

On to `Cc1c(/C=C/c2cc(CNC(C)(CO)C(=O)O)ccc2C(F)(F)F)cccc1-c1ccccc1F` (stereo not drawn) [Compound 17, (E)-2-(3-(2-(2′-fluoro-2-methylbiphenyl-3-yl)vinyl)-4-(trifluoromethyl)benzylamino)-3-hydroxy-2-methylpropanoic Acid], for which the pIC50 is 7.70. This pIC50 and that of the compound before are within 0.2 log units of each other.

Turning to `Cc1c(/C=C/c2cc(CNC(C)(CO)C(=O)O)cc3c2OCC3)cccc1-c1ccc2c(c1)OCCO2` (stereo not drawn) [Compound 24, (E)-2-((7-(3-(2,3-dihydrobenzo[b][1,4]dioxin-6-yl)-2-methylstyryl)-2,3-dihydrobenzofuran-5-yl)methylamino)-3-hydroxy-2-methylpropanoic Acid], the pIC50 was 6.37.

Compound `Cc1ccc(CN[C@@](C)(CO)C(=O)O)cc1/C=C/c1cccc(-c2ccccc2)c1C` [Compound 28, (S,E)-2-(3-(2-(2-methylbiphenyl-3-yl)vinyl)-4-methylbenzylamino)-3-hydroxy-2-methylpropanoic Acid] had a pIC50 of 7.54.

The compound `Cc1ccc(CNC(C)(CO)C(=O)O)cc1/C=C/c1cccc(-c2cccc(F)c2)c1C` (stereo not drawn) [Compound 9] gave a pIC50 of 7.24.

In turn, `Cc1c(/C=C/c2cc(CN[C@@](C)(CO)C(=O)O)ccc2C(F)(F)F)cccc1-c1cnccn1` [Compound 41, (S,E)-3-hydroxy-2-methyl-2-(3-(2-methyl-3-(pyrazin-2-yl)styryl)-4-(trifluoromethyl)benzylamino)propanoic Acid] had a pIC50 of 6.27.

The compound `C[C@](CO)(NCc1ccc(C(F)(F)F)c(/C=C/c2cccc(-c3ccccc3)c2F)c1)C(=O)O` [Compound 34, (R,E)-2-(3-(2-(2-fluorobiphenyl-3-yl)vinyl)-4-(trifluoromethyl)benzylamino)-3-hydroxy-2-methylpropanoic Acid] had a pIC50 of 6.74.

For the compound `Cc1c(/C=C/c2cc(CNC(CO)C(=O)O)ccc2F)cccc1-c1ccc2c(c1)OCCO2` (stereo not drawn) [Compound 12, (E)-2-(3-(3-(2,3-dihydrobenzo[b][1,4]dioxin-6-yl)-2-methylstyryl)-4-fluorobenzylamino)-3-hydroxypropanoic Acid], the negative-log IC50 (pIC50) is 7.62.

In general, pIC50 refers to the IC50 on a negative log10 scale, so that one unit is a factor of ten.
